This note sets out measurements from ChEMBL document CHEMBL1201862, “PubChem BioAssay data set” (2004).

SMILES strings stand for the structures.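 Tested at 5 concentrations; 48 h exposure; 96-well plates; endpoints linearly interpolated, else capped at highest concentration. At the GI50, growth is halved.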 Calls of active or inactive are those of the source. Cut-off read from the data, not from the text of the source: active = GI50 up to about 1.1 µM and inactive = higher. Where only a bound is given, the exact number is not on record here.

Among the test systems are A498; SNB-75; NCI-H23; IGROV-1; HOP-92; NCI-H522; HCT-15; SK-OV-3; Malme-3M; 786-0; OVCAR-3; M14; SW-620; SK-MEL-5; TK-10; NCI-H460; Hs-578T; COLO 205.
Test in all cases: NCI-60 cell line screen, 48 h

In the case of `C/C(=N\NC(=S)N(C)C)c1ncc[nH]1`, the GI50 was 3.94 µM (inactive) in the experiment on A498; 7.57 µM (inactive) in the experiment on SNB-75; 2.1 µM (inactive) in the experiment with NCI-H23; 2.78 µM (inactive) in the experiment on IGROV-1; 2.47 µM (inactive) with HOP-92; 2.62 µM (inactive) with NCI-H522. The GI50 in the experiment with HCT-15 was 3.77 µM; in the experiment with SK-OV-3, 3.87 µM (inactive); in the experiment on Malme-3M it was 3.36 µM (inactive); with 786-0, 2.18 µM (inactive); with OVCAR-3, 3.36 µM (inactive); in the experiment with M14, 2.31 µM (inactive). The GI50 is 4.59 µM (inactive) in the experiment on SW-620, 4.46 µM (inactive) with SK-MEL-5, 13.3 µM (inactive) with TK-10 and 3.24 µM (inactive) with NCI-H460.
Take `O=C(Cc1ccccc1)NN1C(=O)/C(=C\c2cccc(O)c2)S/C1=N\c1ccccc1`: the GI50 in the experiment on A498 is > 100 µM (inactive); with SNB-75, > 100 µM (inactive); in the experiment with NCI-H23, > 100 µM (inactive); with IGROV-1, > 100 µM (inactive); in the experiment with HCT-15, over 100 µM; in the experiment on SK-OV-3 it was > 100 µM (inactive). The GI50 in the experiment on Hs-578T is > 100 µM (inactive); in the experiment with 786-0 it was > 100 µM (inactive); in the experiment with OVCAR-3 it was 83.4 µM (inactive); in the experiment on M14, > 100 µM (inactive); in the experiment on SW-620, > 100 µM (inactive); with SK-MEL-5, > 100 µM (inactive). Further, the GI50 in the experiment with TK-10, in the experiment with COLO 205 and with NCI-H460 was > 100 µM (inactive) throughout.
Regarding `[O-][S+]1c2ccccc2SCSc2ccccc21`, the GI50 was > 100 µM (inactive) with A498; > 100 µM (inactive) with NCI-H23; 14.8 µM (inactive) in the experiment with HOP-92; > 100 µM (inactive) with NCI-H522; over 100 µM in the experiment on HCT-15; > 100 µM (inactive) in the experiment on SK-OV-3. The GI50 in the experiment on Malme-3M is > 100 µM (inactive); with 786-0, > 100 µM (inactive); with OVCAR-3, > 100 µM (inactive); in the experiment with M14, > 100 µM (inactive); in the experiment with SK-MEL-5, 76.6 µM (inactive); with TK-10, > 100 µM (inactive). The GI50 in the experiment on COLO 205 and in the experiment on NCI-H460 was > 100 µM (inactive) in each case.
With `COC(=O)C1=CNC(C(=O)OC)=NN1`, the GI50 in the experiment with SNB-75 is > 100 µM (inactive); in the experiment with NCI-H23 it was > 100 µM (inactive); with IGROV-1, > 100 µM (inactive); with HOP-92 it was > 100 µM (inactive); with NCI-H522, > 100 µM (inactive); in the experiment on HCT-15, over 100 µM. For the same compound, the GI50 in the experiment on SK-OV-3, with Malme-3M, with 786-0, with OVCAR-3, in the experiment on M14 and in the experiment on SW-620 was > 100 µM (inactive) in each case. Besides, the GI50 in the experiment on SK-MEL-5, in the experiment on TK-10, in the experiment with COLO 205 and with NCI-H460 was > 100 µM (inactive) throughout.
As to `COc1ccc(CNc2nc(NCc3ccc(OC)cc3)nc(NC3CCCC3)n2)cc1`, the GI50 with SNB-75 was 16.4 µM (inactive); with NCI-H23 it was 2.99 µM (inactive); with IGROV-1 it was 13.4 µM (inactive); in the experiment on NCI-H522, 2.99 µM (inactive); with HCT-15 it was 3.19 µM; in the experiment with SK-OV-3, 5.28 µM (inactive). The GI50 is 8.53 µM (inactive) with Malme-3M; 3.07 µM (inactive) in the experiment on Hs-578T; 4.05 µM (inactive) with 786-0; 2.76 µM (inactive) with OVCAR-3; 2.91 µM (inactive) in the experiment on M14; 4.14 µM (inactive) in the experiment with SW-620. Also, the GI50 in the experiment with SK-MEL-5 was 3.76 µM (inactive); with TK-10, 3.26 µM (inactive); with COLO 205, 3.05 µM (inactive); in the experiment on NCI-H460, 3.6 µM (inactive).
